Reference: patent US20160256472A1, “COMPOSITIONS AND METHODS OF ADMINISTERING SAME” (PALMAYA PTY LTD, priority 2013, published 2016)
“Also recorded” adds a separate entry of the source.

What was measured:
[1] = system: craving and craving anxiety for smoking, alcohol or drug use; test: Pilot study case reports: craving and craving anxiety after rapid (nasal/sublingual) delivery of micro-doses; type: in vivo, human; settings: Example 7: bupropion 250 micrograms added, nasal delivery
Experimental: About 40-50 minutes later the craving anxiety for smoking started to climb.
Their craving for smoking and alcohol were linked making smoking more severe during times of alcohol use.
This profound change depends on them giving themself one or two doses before getting out of bed in the morning as this is the most severe craving in the day.
They averaged 20 doses per day.

[2] = cited from earlier work
[3] = in vivo; cited from earlier work
[4] = oral dosage form, 50 mg per day; cited from earlier work
smoking addiction = settings: Cochrane review; cited from earlier work
[5] = Oral naltrexone absorption and presence in blood stream; settings: standard oral administration, one off dose of 50 mg per day
Text: As with all addictions, craving anxiety builds and is then reduced at the time of drug use or when the habit is repeated. The cycle then repeats itself. Craving may present itself with anxiety or in some cases presents itself where the individual places himself in a risky situation or searches for the substance or opportunity for the substance or event.

CC(NC(C)(C)C)C(=O)c1cccc(Cl)c1 (stereo not shown) [bupropion]
effect of bupropion on the effectiveness of the flumazenil/naltrexone combination [1]: maximise the effectiveness

CCOC(=O)c1ncn2c1CN(C)C(=O)c1cc(F)ccc1-2 [flumazenil]
side effects ([2]; intravenous flumazenil, literature): panic attacks or fitting | safe dose ([2]; intravenous injection, recorded by Mims): up to 100 mg | half-life [3]: less than one

O=C1CC[C@@]2(O)[C@H]3Cc4ccc(O)c5c4[C@@]2(CCN3CC2CC2)[C@H]1O5 [naltrexone]
time after administration at which oral naltrexone disappears from the blood stream [4]: six | efficacy in smoking addiction / smoking cessation (smoking addiction): does not give any evidence of smoking cessation; also recorded: not effective | time naltrexone is undetectable in the blood stream [5]: 18 hours a day
